In patent US20110237535A1, “Use of Induced Pluripotent Cells and other Cells for Screening Compound Libraries” (priority 2010, published 2011):
Entries after “also recorded” stand apart in the source; their conditions may differ. Where two headings read alike, the source gives them in different places.

Tests used:
[1] = test system: HeLa cells; type: cell-based
Protocol: In another experiment HeLa cells were treated with 100 uM of tamoxifen (a calcium influx stimulator), doxorubicin (a DNA damaging agent), cycloheximide (a protein synthesis inhibitor), digitonin (a mild detergent), and a buffer, and monitored every 15 minutes on a BIND™ Reader for 40 hours in a 37° C. incubator. The cytotoxic compounds each have distinct mechanisms of action that have distinct kinetic profiles in the assays of the invention. Toxins can be tested for their effect on differing types of cells and can be placed into a class or sub-class of toxins (e.g. calcium influx stimulator) based on their kinetic profiles. These assays have a higher throughput than electrical impedance testing for screening and profiling of toxic compounds.

[2] = test system: Murine embryonic stem cell-derived cardiomyocytes; assay: Beating amplitude and frequency of cardiomyocytes, PWV at 4 reads per second; type: cell-based
Protocol: Murine embryonic stem cell-derived cardiomyocytes were added to wells of a biosensor and a BIND™ Reader recorded PWVs at the rate of 4 reads per second. One well was treated with KCl and another well was not treated. The cells beat synchronously when cultured on BIND™ optical biosensors and the frequency of the beating can be detected. […] The BIND™ Reader detects beating frequency and rate as oscillations of positive-negative PWV shifts. Kinetic PWV profiles can be used to accurately measure beating rate and frequency. Therefore, the assay provides an ultra high-throughput assay to measure off-target drug effects on cardiotoxicity and contractility.
In another experiment the cardiomyocytes were plated at 20,000 cells per well on fibronectin coated biosensor plates. The cells were incubated for 72 h at 37° C. before the experiment. The cells were monitored for 3 minutes before KCl was added to 50 mM final concentration.
In another experiment cardiomyocytes were treated for 17 hours with several different concentrations of doxorubicin (10 μM, 1 μM, 0.1 μM, 0.01 μM, and 0 μM). The beating amplitude and frequency was measured at 4 reads/second prior to doxorubicin treatment, then again after the 17 hour doxorubicin incubation.

[3] = test system: cardiomyocytes; assay: Cardiomyocyte beating recorded with refined high-speed BIND Cartridge Reader; type: cell-based; details: 6, 10 and 15 minutes after addition, FIG. 17
From the text: An Ocean Optics HT2000+ spectrometer in a BIND™ Cartridge Reader was altered so that the slit that allows light into the spectrometer was widened, allowing more light to enter the enter the spectrometer. Therefore, recordings of up to 1000 Hz, i.e. up to 1000 readings/second can be obtained when the BIND™ Cartridge Reader is “parked” (i.e., the BIND™ Cartridge Reader remains in one position over, e.g., a well holding cells). The recordings are made continually in real-time. Recordings can be taken at about 2, 4, 10, 50, 80, 100, 250, 280, 300, 400, 500, 600, 700, 800, 900, 1,000 or more Hz (or any range between about 2 and about 1,000 Hz).
The refined BIND™ Cartridge Reader was used to take measurements of cardiomyocyte beating. […] By comparison, the data in Examples 1 and 2 was measured at 4 Hz. The increased sampling rate allows a much more refined look at the shape of each individual beat. Different beating “phenotypes” can be determined from well-to-well, in addition, the difference between synchronous beating across the well and asynchronous beating can be determined. […]
Amitriptyline is a tricyclic antidepressant sold under the trade name Elavil™. […] Amitriptyline was added to cardiomyocytes that were beating in culture and PWVs were constantly monitored. […]

[4] = test system: mES-derived cardiomyocytes (Cor.At); assay: Doxorubicin toxicity on mES-derived cardiomyocytes, constant PWV monitoring; type: cell-based, murine
Protocol: mES-derived cardiomyocytes (Cor.At) were obtained from Axiogenesis/Lonza. 5,000 cells per well were plated on fibronectin-coated 384 well biosensor plates for 24 h before experiment. These cells beat in culture. Cells were treated with doxorubicin for 17 h at 37° C. with constant monitoring using the BIND™ Reader. […] There is an oscillation of PWVs that indicates the beating of the cells. The amplitude of the beating becomes stronger over time. That is, there is Y axis spread of the PWV reading grows larger over time as the cells beat stronger in culture.

[5] = FIG. 6-9, cell line not restated in these blocks
[6] = KCl-treated well vs untreated well, FIG. 11

Compound | kinetic profile (PWV over time) [1, 5] | also measured
4-hydroxy-tamoxifen | faster onset of toxicity than tamoxifen | –
CC[C@@]1(O)C(=O)OCc2c1cc1n(c2=O)Cc2cc3ccccc3nc2-1 [Camptothecin] | somewhat different kinetic profile | –
N.N.[Cl][Pt][Cl] [Cisplatin] | sudden onset, steep decline, followed by a negative PWV plateau | –
[Cl-].[K+] [KCl] | – | rate and frequency of the beating ([2]; KCl 50 mM final concentration, added after 3 minutes of monitoring, 20,000 cells per well, FIG. 13): drastically reduced; amplitude of the beating [2, 6]: loss of amplitude of the beating; frequency of the beating [2, 6]: decrease in the frequency of the beating
CN(C)CCC=C1c2ccccc2CCc2ccccc21 [amitriptyline] | – | beating pattern after compound addition [3]: change from regular, synchronous beating to irregular, non-synchronous beating
COc1cccc2c1C(=O)c1c(O)c3c(c(O)c1C2=O)C[C@@](O)(C(=O)CO)C[C@@H]3O[C@H]1C[C@H](N)[C@H](O)[C@H](C)O1 [doxorubicin] | sudden onset, steep decline, followed by a negative PWV plateau | amplitude and frequency of beating ([2]; 17 hours doxorubicin at 10 μM, 1 μM, 0.1 μM, 0.01 μM, 0 μM, FIG. 14): disrupted by doxorubicin in a concentration-dependent manner; PWV readings ([4]; doxorubicin 17 h at 37° C., 5,000 cells per well, FIG. 10): PWV readings become negative; also recorded: dose dependant; amplitude of beating over time ([4]; doxorubicin 17 h at 37° C., FIG. 10A): becomes weaker over time
CO[C@@]12[C@H](COC(N)=O)C3=C(C(=O)C(C)=C(N)C3=O)N1C[C@@H]1N[C@@H]12 [mitomycin] | sudden onset, steep decline, followed by a negative PWV plateau | –
[K+].[K+].[O]=[Cr](=[O])([O-])[O][Cr](=[O])(=[O])[O-] [potassium dichromate] | – | kinetic profile (PWV over time) [1]: sudden onset, steep decline, followed by a negative PWV plateau
O=C(c1ccc(OCCN2CCCCC2)cc1)c1c(-c2ccc(O)cc2)sc2cc(O)ccc12 [raloxifene] | lack of cytotoxic response | –
CC/C(=C(\c1ccccc1)c1ccc(OCCN(C)C)cc1)c1ccccc1 [tamoxifen] | sharp downward shift in PWV at early time points | –
CC[C@]1(O)C[C@@H]2CN(CCc3c([nH]c4ccccc34)[C@@](C(=O)OC)(c3cc4c(cc3OC)N(C)[C@H]3[C@@](O)(C(=O)OC)[C@H](OC(C)=O)[C@]5(CC)C=CCN6CC[C@]43[C@@H]65)C2)C1 [vinblastine] | rapid acute response and then a gradual negative PWV shift over the long term | –
